Reference: the NIST ThermoML archive (doi:10.1021/je300945r)
± gives the expanded uncertainty stated by the source.

Structure (SMILES): F/C=C/C(F)(F)F [trans-1,3,3,3-tetrafluoropropene]
- mass density (323.14 K, 8751 kPa, Liquid, Vibrating tube method): 1126.4 ± 1.6 kg/m3
- mass density (323.14 K, 9772 kPa, Liquid, Vibrating tube method): 1131.9 ± 1.6 kg/m3
- mass density (323.14 K, 12808 kPa, Liquid, Vibrating tube method): 1147.2 ± 1.6 kg/m3
- mass density (323.14 K, 13808 kPa, Liquid, Vibrating tube method): 1151.8 ± 1.6 kg/m3
- mass density (323.14 K, 14826 kPa, Liquid, Vibrating tube method): 1156.4 ± 1.6 kg/m3
- mass density (323.14 K, 15836 kPa, Liquid, Vibrating tube method): 1160.8 ± 1.6 kg/m3
- mass density (323.14 K, 16839 kPa, Liquid, Vibrating tube method): 1165 ± 1.6 kg/m3
- mass density (323.14 K, 17853 kPa, Liquid, Vibrating tube method): 1169.1 ± 1.6 kg/m3
- mass density (323.14 K, 18870 kPa, Liquid, Vibrating tube method): 1173.1 ± 1.6 kg/m3
- mass density (323.14 K, 19877 kPa, Liquid, Vibrating tube method): 1177 ± 1.6 kg/m3
- mass density (323.14 K, 20888 kPa, Liquid, Vibrating tube method): 1180.8 ± 1.6 kg/m3
- mass density (323.14 K, 25937 kPa, Liquid, Vibrating tube method): 1198.3 ± 1.7 kg/m3
- mass density (323.14 K, 26941 kPa, Liquid, Vibrating tube method): 1201.5 ± 1.7 kg/m3
- mass density (323.14 K, 29967 kPa, Liquid, Vibrating tube method): 1210.9 ± 1.7 kg/m3
- mass density (323.15 K, 10784 kPa, Liquid, Vibrating tube method): 1137.3 ± 1.6 kg/m3
- mass density (323.15 K, 11798 kPa, Liquid, Vibrating tube method): 1142.3 ± 1.6 kg/m3
- mass density (323.15 K, 21901 kPa, Liquid, Vibrating tube method): 1184.5 ± 1.6 kg/m3
- mass density (323.15 K, 22914 kPa, Liquid, Vibrating tube method): 1188 ± 1.6 kg/m3
- mass density (323.15 K, 23918 kPa, Liquid, Vibrating tube method): 1191.5 ± 1.6 kg/m3
- mass density (323.15 K, 24922 kPa, Liquid, Vibrating tube method): 1194.9 ± 1.7 kg/m3
- mass density (323.15 K, 27947 kPa, Liquid, Vibrating tube method): 1204.7 ± 1.7 kg/m3
- mass density (323.15 K, 28950 kPa, Liquid, Vibrating tube method): 1207.8 ± 1.7 kg/m3
- mass density (323.15 K, 30984 kPa, Liquid, Vibrating tube method): 1213.9 ± 1.7 kg/m3
- mass density (323.15 K, 31990 kPa, Liquid, Vibrating tube method): 1216.9 ± 1.7 kg/m3
- mass density (323.15 K, 33002 kPa, Liquid, Vibrating tube method): 1219.7 ± 1.7 kg/m3
- mass density (323.15 K, 34015 kPa, Liquid, Vibrating tube method): 1222.6 ± 1.7 kg/m3
- mass density (324.12 K, 770.9 kPa, Gas, isochoric method): 38.462 ± 0.13 kg/m3
- mass density (324.12 K, 771 kPa, Gas, isochoric method): 38.462 ± 0.13 kg/m3
- mass density (325.11 K, 605.5 kPa, Gas, isochoric method): 28.571 ± 0.11 kg/m3
- mass density (333.07 K, 79.2 kPa, Gas, isochoric method): 3.311 ± 0.086 kg/m3
- mass density (333.07 K, 288 kPa, Gas, isochoric method): 12.346 ± 0.095 kg/m3
- mass density (333.07 K, 488.2 kPa, Gas, isochoric method): 21.739 ± 0.097 kg/m3
- mass density (333.08 K, 180.4 kPa, Gas, isochoric method): 7.634 ± 0.087 kg/m3
- mass density (333.09 K, 428.5 kPa, Gas, isochoric method): 19.231 ± 0.095 kg/m3
- mass density (333.09 K, 624.8 kPa, Gas, isochoric method): 28.571 ± 0.11 kg/m3
- mass density (333.09 K, 685.9 kPa, Gas, isochoric method): 32.258 ± 0.11 kg/m3
- mass density (333.09 K, 801.3 kPa, Gas, isochoric method): 38.462 ± 0.12 kg/m3
- mass density (333.09 K, 801.4 kPa, Gas, isochoric method): 38.462 ± 0.12 kg/m3
- mass density (333.09 K, 875.5 kPa, Gas, isochoric method): 43.478 ± 0.14 kg/m3
- mass density (333.1 K, 875.5 kPa, Gas, isochoric method): 43.478 ± 0.14 kg/m3
- mass density (333.15 K, 10813 kPa, Liquid, Vibrating tube method): 1108.1 ± 1.6 kg/m3
- mass density (333.15 K, 15858 kPa, Liquid, Vibrating tube method): 1134.8 ± 1.6 kg/m3
- mass density (333.15 K, 17873 kPa, Liquid, Vibrating tube method): 1144.2 ± 1.6 kg/m3
- mass density (333.15 K, 18876 kPa, Liquid, Vibrating tube method): 1148.5 ± 1.6 kg/m3
- mass density (333.15 K, 19891 kPa, Liquid, Vibrating tube method): 1152.9 ± 1.6 kg/m3
- mass density (333.15 K, 20898 kPa, Liquid, Vibrating tube method): 1157 ± 1.6 kg/m3
- mass density (333.15 K, 21900 kPa, Liquid, Vibrating tube method): 1161 ± 1.6 kg/m3
- mass density (333.15 K, 22913 kPa, Liquid, Vibrating tube method): 1165 ± 1.6 kg/m3
- mass density (333.15 K, 23923 kPa, Liquid, Vibrating tube method): 1168.8 ± 1.6 kg/m3
- mass density (333.15 K, 24932 kPa, Liquid, Vibrating tube method): 1172.5 ± 1.6 kg/m3
- mass density (333.15 K, 25940 kPa, Liquid, Vibrating tube method): 1176.1 ± 1.6 kg/m3
- mass density (333.15 K, 26944 kPa, Liquid, Vibrating tube method): 1179.7 ± 1.6 kg/m3
- mass density (333.15 K, 27958 kPa, Liquid, Vibrating tube method): 1183 ± 1.7 kg/m3
- mass density (333.15 K, 28967 kPa, Liquid, Vibrating tube method): 1186.4 ± 1.7 kg/m3
- mass density (333.15 K, 29982 kPa, Liquid, Vibrating tube method): 1189.8 ± 1.7 kg/m3
- mass density (333.15 K, 30988 kPa, Liquid, Vibrating tube method): 1193 ± 1.7 kg/m3
- mass density (333.15 K, 31995 kPa, Liquid, Vibrating tube method): 1196.1 ± 1.7 kg/m3
- mass density (333.15 K, 33006 kPa, Liquid, Vibrating tube method): 1199.3 ± 1.7 kg/m3
- mass density (333.15 K, 34013 kPa, Liquid, Vibrating tube method): 1202.3 ± 1.7 kg/m3
- mass density (333.16 K, 1380 kPa, Liquid, Vibrating tube method): 1031.7 ± 1.7 kg/m3
- mass density (333.16 K, 1683 kPa, Liquid, Vibrating tube method): 1035.2 ± 1.7 kg/m3
- mass density (333.16 K, 2698 kPa, Liquid, Vibrating tube method): 1046.3 ± 1.7 kg/m3
- mass density (333.16 K, 3721 kPa, Liquid, Vibrating tube method): 1056.4 ± 1.7 kg/m3
- mass density (333.16 K, 4755 kPa, Liquid, Vibrating tube method): 1065.6 ± 1.6 kg/m3
- mass density (333.16 K, 5766 kPa, Liquid, Vibrating tube method): 1073.9 ± 1.6 kg/m3
- mass density (333.16 K, 6767 kPa, Liquid, Vibrating tube method): 1081.5 ± 1.6 kg/m3
- mass density (333.16 K, 7784 kPa, Liquid, Vibrating tube method): 1088.8 ± 1.6 kg/m3
- mass density (333.16 K, 8801 kPa, Liquid, Vibrating tube method): 1095.7 ± 1.6 kg/m3
- mass density (333.16 K, 9801 kPa, Liquid, Vibrating tube method): 1102 ± 1.6 kg/m3
- mass density (333.16 K, 11831 kPa, Liquid, Vibrating tube method): 1114 ± 1.6 kg/m3
- mass density (333.16 K, 12847 kPa, Liquid, Vibrating tube method): 1119.5 ± 1.6 kg/m3
- mass density (333.16 K, 13849 kPa, Liquid, Vibrating tube method): 1124.8 ± 1.6 kg/m3
- mass density (333.16 K, 14855 kPa, Liquid, Vibrating tube method): 1129.9 ± 1.6 kg/m3
- mass density (333.16 K, 16870 kPa, Liquid, Vibrating tube method): 1139.6 ± 1.6 kg/m3
- mass density (343.03 K, 81.6 kPa, Gas, isochoric method): 3.3 ± 0.084 kg/m3
- mass density (343.03 K, 297.5 kPa, Gas, isochoric method): 12.346 ± 0.091 kg/m3
- mass density (343.04 K, 81.7 kPa, Gas, isochoric method): 3.3 ± 0.084 kg/m3
- mass density (343.04 K, 186.1 kPa, Gas, isochoric method): 7.634 ± 0.085 kg/m3
- mass density (343.04 K, 505.6 kPa, Gas, isochoric method): 21.739 ± 0.093 kg/m3
- mass density (343.04 K, 648.5 kPa, Gas, isochoric method): 28.571 ± 0.1 kg/m3
- mass density (343.05 K, 443.5 kPa, Gas, isochoric method): 19.231 ± 0.092 kg/m3
- mass density (343.06 K, 713 kPa, Gas, isochoric method): 32.258 ± 0.11 kg/m3
- mass density (343.06 K, 713.1 kPa, Gas, isochoric method): 32.258 ± 0.11 kg/m3
- mass density (343.06 K, 913.4 kPa, Gas, isochoric method): 43.478 ± 0.13 kg/m3
- mass density (343.06 K, 913.5 kPa, Gas, isochoric method): 43.478 ± 0.13 kg/m3
- mass density (343.15 K, 834.9 kPa, Gas, isochoric method): 38.462 ± 0.11 kg/m3
- mass density (343.15 K, 835 kPa, Gas, isochoric method): 38.462 ± 0.11 kg/m3
- mass density (343.15 K, 1625 kPa, Liquid, Vibrating tube method): 984.2 ± 1.7 kg/m3
- mass density (343.15 K, 2607 kPa, Liquid, Vibrating tube method): 999.1 ± 1.7 kg/m3
- mass density (343.15 K, 3648 kPa, Liquid, Vibrating tube method): 1012.8 ± 1.7 kg/m3
- mass density (343.15 K, 4690 kPa, Liquid, Vibrating tube method): 1024.7 ± 1.7 kg/m3
- mass density (343.15 K, 5696 kPa, Liquid, Vibrating tube method): 1035.1 ± 1.7 kg/m3
- mass density (343.15 K, 6697 kPa, Liquid, Vibrating tube method): 1044.5 ± 1.6 kg/m3
- mass density (343.15 K, 7717 kPa, Liquid, Vibrating tube method): 1053.2 ± 1.6 kg/m3
- mass density (343.15 K, 8731 kPa, Liquid, Vibrating tube method): 1061.4 ± 1.6 kg/m3
